Data reported in patent publication US20150344822A1, “Decontaminant and Process for Decontamination of Chemicals from Infrastructural Materials” (priority 2014, published 2015).
Several values for one entry are separate records, joined by “and”; a condition that tells them apart may be missing. Equal values may be shown once. Read-outs that look alike come from different tables or passages of the source.

Columns and labels:
[1] = hazardous ingredient of the product; cited from earlier work
[2] = Task 1: removal of adhered chemicals by three de-ionized water rinses and extractant; conditions: for Aqueous concentration of mercury, Extraction: adherence at 4-6° C.; for Aqueous concentration, Extractant: after 24 hours; for Aqueous concentration, Extractant / Aqueous concentration of mercury, Extractant: 20-25° C.; for Aqueous concentration of mercury, Extractant: after 7 days, initial 22829.8 mg/L, extractant = chemical decontaminant of the present disclosure
Experimental: In Task 1, the pipes were rinsed immediately after the equilibrated solution was transferred into the analytical sample vials. Thereafter, de-ionized water at room temperature was used for rinsing the pipes. Three consecutive rinses were conducted using de-ionized water at room temperature. In case of aged black iron pipe, the aqueous solution was centrifuged before transferring to the sample vials to avoid entrainment of colloidal corroded iron particles in the solution. During the extraction step, the pipes were about half filled with the extraction solution and wrapped tightly. The 4″ diameter pipes were filled with 150 mL of extraction solution. The copper, PVC, and HDPE pipes were filled with 55 mL of extraction solution, while the epoxy and the aged metal pipes were filled with 85 mL of extraction solution. […] After shaking for 1 hour, the pipes were flipped in order to get contact with the entire inner surface of the pipe. The extraction solutions were transferred to the appropriate sample vial.
(§1) The sample was introduced via a peristaltic pump by pneumatic nebulization into radio frequency plasma where energy transfer processes cause desolvation, atomization, and ionization. The ions were extracted from the plasma through a pumped vacuum interface and separated on the basis of their mass-to-charge ratio by a quadrupole mass spectrometer. The ions transmitted through the quadrupole were registered by a continuous dynode electron multiplier and the ion information was processed by a data handling system.
In this table, m0 and mi are the initial and final amounts of chemical in water.
Water rinse was done to remove the weakly-bound chemicals, while the strongly-bound chemicals, if any, were extracted with stronger solvents.

[3] = Task 2: efficacy of decontamination agents (extraction and subsequent rinses); conditions: for Aqueous concentration of mercury, Extraction: extractant hypochlorite (300 mg/L), mercury input 19530.00 mg/L, adhered 7 days, 20-25° C.
From the text: The pipe materials used for subtask 2 were DIE, DIW, PVC and copper. […] Types of interactions included scrubbing, flushing, recirculation, shaking and static equilibrium.
After equilibration, the contaminant was extracted using the various decontamination agents. […] Surfactant molecules have both hydrophilic and hydrophobic parts, and the most attractive place for them in water is at the surface where the forces of both attraction and repulsion to water can be satisfied. […] The aqueous solutions of these decontaminants were prepared using the available chemical decontaminants and diluting them to required concentration by adding DI water. Appropriate volume corrections were conducted for NaOCl considering available solution concentration of NaOCl received from the supplier.
as §1

[4] = product as supplied; cited from earlier work
rat = conditions: oral (rat); cited from earlier work
[5] = cited from earlier work
[6] = Task 1A: surface adherence of contaminants on pipe materials, 7 days at 20-25° C.; assay type: physicochemical; conditions: comparison of Tasks 1A, 1B, 1C

CCCCOCCO [Butyl cellosolve]
PEL [1]: 25 mg/L
TLV [1]: 25 mg/L

Mercuric chloride [Mercury]
Aqueous concentration of mercury, Extraction ([2]; Copper pipe, Mercury #1, initial 7737.5 mg/L): 515.7 mg/L and 272.8 mg/L
Aqueous concentration, Extractant ([2]; Copper pipe, Mercury #1, initial 8171.5 mg/L): 702.4 mg/L and 559.3 mg/L
Aqueous concentration, Extractant ([2]; Copper pipe, Mercury #2, initial 23950.0 mg/L): 1820.0 mg/L and 2140.0 mg/L
Aqueous concentration of mercury, Extraction ([2]; Copper pipe, Mercury #2, initial 28800.0 mg/L): 2930.0 mg/L and 2800.0 mg/L
Aqueous concentration of mercury, Extractant ([2]; Copper pipe): 7368.1 mg/L and 6413.5 mg/L
Aqueous concentration of mercury, Extractant ([2]; DIE pipe): 187.6 mg/L and 179.1 mg/L
Aqueous concentration of mercury, Extractant ([2]; DIO pipe): 9532.2 mg/L and 7156.1 mg/L
Aqueous concentration, Extractant ([2]; DIW pipe, Mercury #1, initial 8171.5 mg/L): 684.6 mg/L and 914.1 mg/L
Aqueous concentration of mercury, Extraction ([2]; DIW pipe, Mercury #2, initial 28800.0 mg/L): 1520.0 mg/L and 2290.0 mg/L
Aqueous concentration of mercury, Extractant ([2]; HDPE pipe): 0.3 mg/L and 0.5 mg/L
Aqueous concentration of mercury, Extraction ([2]; PVC pipe, Mercury #1, initial 7737.5 mg/L): 1.6 mg/L and 2.6 mg/L

OCl [Sodium Hypochlorite, Sodium hypochlorite]
Aqueous concentration of mercury, Extraction ([3]; COP (copper) pipe, listed as Hypochlorite): 11.01 mg/L and 8.48 mg/L
Aqueous concentration of mercury, Extraction ([3]; COP (copper) pipe, listed as hypochlorite): 8.5 mg/L and 11 mg/L
Aqueous concentration of mercury, Extraction ([3]; DIE pipe): 133.91 mg/L and 136.16 mg/L
Aqueous concentration of mercury, Extraction ([3]; DIW pipe, listed as Hypochlorite): 251.05 mg/L and 315.47 mg/L
Aqueous concentration of mercury, Extraction ([3]; DIW pipe, listed as hypochlorite): 251 mg/L and 315 mg/L
Aqueous concentration of mercury, Extraction ([3]; PVC pipe): 290.19 mg/L and 172.41 mg/L
effectiveness in releasing / removing adhered mercury ([3]; mercury adhered on DIW and copper pipes): not effective
removal / recovery of contaminants compared with the other decontaminants tested ([3]; mercury and organophosphates, solid surfaces): significantly less
pH [4]: ~13

COP(=O)(OC)OC=C(Cl)Cl [Dichlorvos]
LD50 (rat): LD50 oral (rat) 56 to 80 mg/kg
Hydrolysis ([5]; at pH 4): slow
Hydrolysis ([5]; at pH 9): rapid
Half-life ([5]; between pH 4 and pH 9): 20 to 80 h

O=C(O)CF [fluoroacetate]
Adhesion coefficients under 7 days and room temperature condition versus 24 hours or low temperature conditions [6]: generally higher

COP(=O)(OC)O/C(C)=C/C(=O)N(C)C [Dicrotophos]
LD50 (rat): Oral LD50 for rats is 16- 21 mg/kg.
time after which decomposed ([5]; at 75° C.): 31 days
time after which decomposed ([5]; at 90° C.): 7 days
storage stability ([5]; stored in glass or polythene containers up to 40° C.): stable
